Columns and labels:
RAW 264.7 cells = test: Nitrite quantification (Griess) in LPS stimulated macrophages; format: cell-based, mouse; settings: RAW 264.7 + LPS (200 ng/ml) + 10 μM compound, 24 h; LPS + DMSO control 14.560, basal 0.782
Procedure: NO2^− accumulation was used as an indicator of Nitric Oxide (NO) production in the medium as described previously (Green et al., 1982 Anal Biochem 126, 131-138). […] The isolated supernatants were mixed with an equal volume of Griess reagent (1% sulfanilamide, 0.1% naphthylenediamine dihydrochloride, and 2% phosphoric acid) and incubated at room temperature for 15 min. NaNO2 was used to generate a standard curve, and nitrite production was determined by measuring the optical density at 540 nm.
To estimate the anti-inflammatory effects of all the synthetic molecules listed in this study, we measured the accumulation of nitrite, the stable metabolite of NO, in the culture media using Griess reagent.
To investigate the effect of CAMVE on NO production, we measured the accumulation of nitrite, the stable metabolite of NO, in the culture media using Griess reagent. To investigate the effect of CAMVE on NO production, Raw 264.7 cells, pretreated with indicated concentrations of CAMVE for 1 h were incubated with LPS (250 ng/ml) for 24 h.

TNFα = test: Bioassay of TNFα production by LPS activated RAW 264.7 macrophages using L929 cell line; format: cell-based; settings: Mus musculus; L929 + ActD + supernatant from LPS + compound (10 μM) treated RAW 264.7 macrophage; crystal violet; mean ± S.D. of triplicate; read-out: PERCENTAGE CELL SURVIVAL ± S.D.
Procedure: Measurement of TNFα in culture medium or supernatant is performed using immunoassay and bioassay. Bioassay was used for the measurement of bioactive TNFα production in the culture medium.
TNFα secretion into the medium by LPS activated macrophage was assayed using L929 tumorigenic murine cells (ATCC) specifically sensitive to TNFα. L929 cell cytotoxicity assay was performed by a modified method (Sano et al., The Journal of Immunology, 1999, 163: 387-395 The Journal of Immunology, 1999, 163: 387-395) based on that described elsewhere (Flick D A, Gifford G E. J Immunol Methods. 1984 Mar. 30; 68(1-2): 167-175). Briefly, the L929 cells (log phase cells) were seeded into a flat bottom 96 well plates (6×10^4/well) in 100 μl volume of RPMI 1640 containing 2% FCS and incubated overnight at 37° C. in a 5% CO2 incubator. A working dilution of the culture supernatant collected from LPS (200 ng/ml) activated macrophage in a volume of 100 μl per well was first tested to obtain 70-75% cytotoxicity equivalent to […] of recombinant TNFα standard to the TNFα sensitive L929 cell line. After incubation of the L929 cells appropriate fixed dilution of the culture supernatant collected from the compound treated (10 μM) wells, containing the LPS stimulated macrophages in a volume of 100 μl with 2 μg/ml Actinomycin D (Act D) was taken and added to the L929 cells and the cells were incubated at room temperature for 15 min followed by 18 h incubation at 37° C. overnight with 5% CO2. On the next day the medium was removed and the cells were stained with 0.2% (w/v) crystal violet for 10 minutes. The wells were gently rinsed with water, and 33% acetic acid (100 μl/well) was added to extract the retained crystal violet. The absorbance at 570 nm was finally measured.
Tumor necrosis factor-α can cause direct cytotoxicity to the lung fibroblast cell line (L929). Bioassay of TNF α is designated on the basis of this cytotoxicity of TNF α, which can be used for the identification of murine TNF α activity in tissue culture supernatants. Culture supernatant collected from the synthetic molecules treated well containing LPS stimulated macrophage modulated the extent of cytotoxicity to the L929 cells (see Table 1).

Compound | CONCENTRATION OF NITRITE μM ± SD (RAW 264.7 cells) | viability at 10 µM (TNFα)
COC(=O)c1ccc(OC(=O)c2cc(O)c(O)c(O)c2)c(OC)c1 [compound 26, 2-methoxy-4-(methoxycarbonyl)phenyl 3,4,5-trihydroxybenzoate] | 6.138 ± 0.567 µM | 58.8 ± 2.15%
COc1cc([C@@H]2Oc3c(O)cc(/C=C/C(=O)O)cc3[C@H]2C(=O)O)ccc1O [compound 28, 5-[(E)-2-carboxyvinyl]-7-hydroxy-2β-(4-hydroxy-3-methoxyphenyl)-2,3-dihydro-1-benzofuran-3α-carboxylic acid] | 7.604 ± 0.204 µM | 66.4 ± 1.11%

Reference: patent US20100168228A1, “NOVEL CHEMOTHERAPEUTIC AGENTS AGAINST INFLAMMATION AND CANCER” (RELIANCE LIFE SCIENCES PVT. LTD., priority 2006, published 2010)
